Assay results published in US7217735B1, “Methods and compositions for enhancing delivery of therapeutic agents to tissues” (priority 1999, dated 2007).
Read-outs that look alike come from different tables or passages of the source. Marks after values point to notes of the source that are not given here.

Tests used:
[1] = test system: FaDu tumor histocultures; details: for time at which even distribution in tumor was attained: with pretreatment
Description: The histocultures were transferred to a collagen gel presoaked with drug-containing medium for at least 8 hr. The latter was to ascertain that the drug concentration in the medium inside the collagen gel was at equilibrium with the surrounding medium, in order to eliminate the delay in drug transport from medium through the collage gel. Drug treatment was terminated by transferring histocultures to a collagen gel presoaked with drug-free medium. Histocultures were transferred using a pair of hooked forceps and care was exercised to avoid squeezing or pinching.
The total drug concentration in tumor histocultures was measured as described in Example 1. […] Thirty to 35 tumor histocultures were used for each time point.
Two studies were performed.
One schedule used 50% of the total C×T to induce apoptosis, whereas the other schedule used continuous treatment. […] The fraction of apoptotic cells and cell density were determined by counting the number of total and apoptotic tumor cells in 400× microscopic fields (3 fields per tumor).

[2] = test system: MAT-LyLu prostate tumor; test: Effect of pretreatment on paclitaxel accumulation in tumors, in vivo infusion; parameters: species or system Copenhagen rat
Description: (§1) Experiments were initiated when the tumor was between 0.3 to 0.5 g in size.
(§2) The jugular vein and carotid artery of tumor-bearing rats were catheterized, under light ether anesthesia, with polyethylene tubing (PE-50, Becton Dickinson Co., Sparks, Md.) for drug administration and for blood sampling, respectively. Each catheter was exteriorized to the dorsal side of the neck and attached to a second polyethylene tubing (PE-50), respectively. The catheters and tubings were covered with a metal coil tubing. […] Blood samples (0.12 or 0.22 ml) were obtained at predetermined times. Plasma fraction was obtained by centrifugation at 2,000 g for 3 min, and stored at −70° C. for HPLC analysis. At the end of the experiment, tumors were harvested. One quarter of a tumor was fixed in 10% neutralized formalin solution and processed for tissue morphology evaluation. Tumor cell density and the fraction of apoptotic cells were determined by counting the number of tumor cells and apoptotic cells in nonnecrotic regions at 400× magnification (5 microscopic fields/tumor). The remainder of the tumor was stored at […] until HPLC analysis for drug concentration.
(§3) Preweighed tumors were homogenized, mixed with the internal standard, 100:1 cephalomanine (10:g/ml in methanol). The HPLC stationary phase consisted of a cleaning column (NovaPak C8, 75×3.9 mm ID, 4:m particle size, Waters Associates, Milford, Mass.) and an analytical column (Bakerbond Octadecyl, 250×4.6 mm ID, 5:m particle size, J. T. Baker, Phillipsburg, N.J.). Samples were injected onto the clean-up column and eluted with the clean-up mobile phase (37.5% acetonitrile in Water) at 1 ml/min.

[3] = as above; parameters: species or system Copenhagen rat; details: male, Copenhagen, rat; for Kp: tumor and plasma, intravenous, read-out: Tumor-to-plasma conc. ratio at end of Tx
Description: as §1, §2, §3

[4] = test system: Pgp-positive patient tumors; test: Paclitaxel accumulation by Pgp status; type: in vitro ADME, human; details: 12,000 nM
Description: The expression of Pgp was measured by immunohistochemical methods, using procedures described previously (Toth K et al. (1994) Am J Pathol 144:227–236). Briefly, tissue sections were de-waxed and rehydrated sequentially in xylene, ethanol and water. Tissue sections were boiled in a 0.1 M citrate buffer, pH 6.0, in a microwave oven, then cooled and washed in phosphate-buffered saline (PBS). The tissue sections were incubated with Dako blocking solution for 10 min and subsequently with the following antibody solutions for 2 hr: a mouse anti-human Pgp antibody (JSB-1, 1:200 dilution) and a rabbit antihuman Pgp polyclonal antibody (ab-1, 1:100 dilution). […] The incubation was carried out in a humidified chamber at room temperature. The antibodies were diluted in PBS containing 5 mg/ml bovine serum albumin. For negative controls, we used mouse IgG as the primary antibody. […] After washing with PBS, the tissue sections were covered with the linker solution, and then with peroxidase-conjugated streptavidin solution. After washing twice with PBS, tissue sections were incubated for 5 to 7 minutes with diaminobenzidine and counterstained with hematoxylin.
The statistical significance of the differences between groups was analyzed by the two-tailed unpaired Student's t-test.

[5] = test system: patient head and neck tumors; test: Paclitaxel uptake in tumor histocultures
Description: The specimens were washed with culture medium for three times and dissected into about 1 mm^3 fragments under sterile conditions. The culture medium consisted of a 1:1 mixture of MEM/DMEM for patient tumors, MEM for FaDu xenografts, and RPMI1640 for PC3 xenografts, supplemented with 9% heat-inactivated FBS, 2 mM glutamine, 0.1 mM non-essential amino acids (only for MEM/DMEM), 90:g/ml gentamicin and 90:g/ml cefotaxime sodium. Five histoculture fragments were placed on a 1 cm^2 piece of presoaked collagen gel and incubated with 4 ml culture medium in 6-well plates. After 2 to 4 days, tumor histocultures were used to study the kinetics of drug penetration.
This study was performed using head and neck tumors from human patients and the human pharynx FaDu xenograft tumors maintained in athymic mice.
At predetermined times, 100 μl of medium was taken from each well and the histocultures were removed from the plates. The histocultures were blot-dried on a filter paper and their weights were measured. One hundred 1 of medium or tumor samples were mixed with 0.5 ml of Solvable tissue/gel solubilizer, incubated at 50° C. in an oven overnight, and analyzed for total radioactivity using liquid scintillation counting. […] Drug concentration in tissue was calculated as (drug amount) divided by (tissue weight) and was expressed in molar terms.
The study design of experiments using patient tumors was dictated by the size of the specimens. On some occasions, specimens from an individual patient were only sufficient to study drug uptake and efflux at one or more but not all drug concentrations. A total of 7 head and neck tumors and 3 ovarian tumors were used. For the FaDu xenograft tumor, specimens from individual animals were sufficiently large that each tumor was used for studying uptake and efflux at all four drug concentrations.
The statistical significance of the differences among patient (head and neck and ovarian, n=6) and FaDu (n=3) tumors, at equal initial medium concentrations, were analyzed by the two-tailed unpaired Student's t-test.

[6] = Group 1: 5 mg/kg/hr x 1 hr, then 0.83 x 6 hr at 24 hr, total 10 mg/kg
[7] = Group 2A: 5 mg/kg/hr x 1 hr at 0 hr, total 5 mg/kg, at 1 hr
[8] = Group 2B: 5 mg/kg/hr x 1 hr at 0 hr, total 5 mg/kg, at 24 hr
[9] = Group 3: 0.83 mg/kg/hr x 6 hr at 0 hr, total 5 mg/kg
[10] = Group 4: 5 mg/kg/hr x 1 hr at 0 hr + 0.83 x 6 hr at 1.2 hr, total 10 mg/kg
[11] = Group 5: 0.83 mg/kg/hr x 12 hr, total 10 mg/kg

CC(=O)O[C@H]1C(=O)[C@@]2(C)[C@H]([C@H](OC(=O)c3ccccc3)[C@]3(O)C[C@H](OC(=O)[C@H](O)[C@@H](NC(=O)c4ccccc4)c4ccccc4)C(C)=C1C3(C)C)[C@]1(OC(C)=O)CO[C@@H]1C[C@@H]2O [paclitaxel]
time at which even distribution in tumor was attained ([1]; 10 nM): 72 h | Paclitaxel in tumor ([1]; 50 nM x 24 hr, 24 hr after initiation of treatment): 3.11 ± 0.31 :M | Paclitaxel in tumor ([1]; 50 nM x 24 hr, 36 hr after initiation of treatment): 2.01 ± 0.32 :M | time at which even distribution in tumor was attained ([1]; 50 nM): 24 h | time of even distribution throughout the tumor ([1]; 50 nM, without pretreatment): ≤ 72 h | Paclitaxel in tumor ([1]; 600 nM x 1 hr, 23 hr later 50 nM x 12 hr, 24 hr after initiation of treatment): 2.68 ± 0.31 :M | Paclitaxel in tumor ([1]; 600 nM x 1 hr, 23 hr later 50 nM x 12 hr, 36 hr after initiation of treatment): 4.33 ± 0.29 :M | paclitaxel penetration ([1]; control group, 50 nM continuously for 24 hr, during the next 12 hr): less than 20 cell layers | higher drug accumulation in pretreatment group vs control group ([1]; end of drug treatment (36 hr vs 24 hr), equal CxT 1,200 nM·hr): 40% | time of even drug distribution throughout histocultures ([1]; pretreatment group, 600 nM 1 hr, 23 hr drug-free, 50 nM 12 hr): 36 h | Apoptotic fraction [2, 6]: 14.5 ± 2.5^b % | Cell density [2, 6]: 83 ± 4.69^b | Plasma conc. at end of Tx [2, 6]: 1.42 ± 0.11 :g/ml | Tumor conc. at specified time ([2]; Group 1: 5 mg/kg/hr x 1 hr, then 0.83 x 6 hr at 24 hr, total 10 mg/kg, at 30 hr): 3.94 ± 0.35 :g/g | higher tumor concentration in Group 1 than sum of Group 2 at 24 hr and Group 3 at 6 hr ([2]; Group 1 at 30 hr): 50% | Plasma conc. at end of Tx ([2]; Group 2A: 5 mg/kg/hr x 1 hr at 0 hr, total 5 mg/kg): 6.01 ± 0.64 :g/ml | Apoptotic fraction [2, 7]: 1.5 ± 0.9% | Cell density [2, 7]: 120 ± 4.35 | Tumor conc. at specified time [2, 7]: 2.76 ± 0.57 :g/g | Apoptotic fraction [2, 8]: 11.2 ± 2.3^c % | Cell density [2, 8]: 85 ± 4.52 | Tumor conc. at specified time [2, 8]: <0.35 at :g/g | Apoptotic fraction [2, 9]: 3.5 ± 1.5% | Cell density [2, 9]: 112 ± 6.08 | Plasma conc. at end of Tx [2, 9]: 1.31 ± 0.12 :g/ml | Tumor conc. at specified time ([2]; Group 3: 0.83 mg/kg/hr x 6 hr at 0 hr, total 5 mg/kg, at 6 hr): 2.26 ± 0.13 :g/g | Apoptotic fraction [2, 10]: 5.8 ± 2.2% | Cell density [2, 10]: 108 ± 5.78 | Plasma conc. at end of Tx [2, 10]: 2.98 ± 0.60 :g/ml | Tumor conc. at specified time ([2]; Group 4: 5 mg/kg/hr x 1 hr at 0 hr + 0.83 x 6 hr at 1.2 hr, total 10 mg/kg, at 7.2 hr): 3.24 ± 0.31 :g/g | Apoptotic fraction [2, 11]: 6.5 ± 1.6% | Cell density [2, 11]: 115 ± 5.18 | Plasma conc. at end of Tx [2, 11]: 1.50 ± 0.06 :g/ml | Tumor conc. at specified time ([2]; Group 5: 0.83 mg/kg/hr x 12 hr, total 10 mg/kg, at 12 hr): 2.95 ± 0.34 :g/g | higher cell (density) in Group 5 compared to Group 1 ([2]; end of treatment): 25% | higher cell density in Group 4 compared to Group 1 ([2]; end of treatment): 30% | lower apoptosis in Group 4 compared to Group 1 ([2]; end of treatment): 60% | lower apoptosis in Group 5 compared to Group 1 ([2]; end of treatment): 35% | lower drug concentration in Group 4 compared to Group 1 ([2]; end of treatment): 18% | lower drug concentration in Group 5 at 12 hr than Group 1 at 30 hr ([2]; rat, in vivo): 25% | difference between plasma concentrations at end of 6 and 12 hr infusions ([2]; rats): 13% | half-life ([3]; plasma, rats, intravenous infusion, read-out: major half-life (converted)): 1.1 h | Kp ([3]; 5 mg/kg, Group 2A: 5 mg/kg/hr x 1 hr at 0 hr, total 5 mg/kg): 0.46 ± 0.09 | Kp ([3]; 5 mg/kg, Group 3: 0.83 mg/kg/hr x 6 hr at 0 hr, total 5 mg/kg): 1.73 ± 0.18 | Kp ([3]; 10 mg/kg, Group 1: 5 mg/kg/hr x 1 hr, then 0.83 x 6 hr at 24 hr, total 10 mg/kg): 2.8 ± 0.28 | Kp ([3]; 10 mg/kg, Group 4: 5 mg/kg/hr x 1 hr at 0 hr + 0.83 x 6 hr at 1.2 hr, total 10 mg/kg): 1.2 ± 0.3 | Kp ([3]; 10 mg/kg, Group 5: 0.83 mg/kg/hr x 12 hr, total 10 mg/kg): 1.98 ± 0.23 | lower accumulation in Pgp-positive vs Pgp-negative patient tumors (average difference) [4]: < 25% | Mass balance ([5]; initial Cmedium 12 nM): 91.2 ± 3.5% | Steady state Cmedium ([5]; initial Cmedium 12 nM): 10.9 ± 1.0 nM | Mass balance ([5]; initial Cmedium 120 nM): 83.8 ± 7.6% | Steady state Cmedium ([5]; initial Cmedium 120 nM): 83.0 ± 0.7 nM | Steady state Ctumor ([5]; initial Cmedium 120 nM): 5.77 ± 1.52 :M | Mass balance ([5]; initial Cmedium 1,200 nM): 87.5 ± 6.5% | Steady state Cmedium ([5]; initial Cmedium 1,200 nM): 925 ± 25 nM | Steady state Ctumor ([5]; initial Cmedium 1,200 nM): 22.0 ± 6.2 :M | Mass balance ([5]; initial Cmedium 12,000 nM): 91.5 ± 3.5% | Steady state Cmedium ([5]; initial Cmedium 12,000 nM): 9,870 ± 59 nM
